{"source": "patent US6168934A", "about": "“Oligosaccharide enzyme substrates and inhibitors: methods and compositions” (The Scripps Research Institute, priority 1998, dated 2001)", "key": {"[1]": {"biological_target": "T1, fucosyl α1,3/1,4 transferase (FucT; EC 2.4.1.65), recombinant (Homo sapiens, UniProt P21217)", "T1 construct": "gift of Dr. J. B. Lowe, University of Michigan", "T1 sequence (P21217 1-361)": "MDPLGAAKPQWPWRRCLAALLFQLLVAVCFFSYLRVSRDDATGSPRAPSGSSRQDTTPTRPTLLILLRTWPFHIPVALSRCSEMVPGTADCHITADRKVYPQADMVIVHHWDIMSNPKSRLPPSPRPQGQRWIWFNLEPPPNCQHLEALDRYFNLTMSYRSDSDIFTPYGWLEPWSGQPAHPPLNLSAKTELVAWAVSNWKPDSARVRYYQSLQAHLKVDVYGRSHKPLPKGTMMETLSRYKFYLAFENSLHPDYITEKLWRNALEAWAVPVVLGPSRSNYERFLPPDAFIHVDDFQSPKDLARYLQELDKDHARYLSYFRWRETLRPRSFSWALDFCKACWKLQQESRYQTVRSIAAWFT", "assay": "Fucosyltransferase inhibition studies (IC50)", "assay_type": "biochemical", "conditions": "2 mM N-acetyllactosamine; for inhibitory effect: up to concentrations of 50 mg/mL", "procedure": "For other studies, such as those using a recombinant fucosylα1,3/4transferase (EC 2.4.1.65) whose results are shown in Table 1a, a stock mixture containing 0.25 mM ^14 C-GDP-fucose (5000 cpm/μL), 6.25 mM ATP, 25 mM MnCl2 are 62.5 mM cacodylate buffer, pH 6.2, was admixed fresh on the day of use, and stored on ice. To that solution, Fuc T was added immediately before use, and the reaction was initiated by the combination of 16 μL of that mixture with 4 μL of 100 mM acceptor substrate. The resulting admixture was then incubated at 37° C. for 30-240 minutes, depending upon the acceptor substrate (reactant compound) under study.\nIn this equation, m=slope and b=y-intercept.\nPercent inhibition=m([inhibitor])+b equation 2"}, "[2]": {"biological_target": "β-galactosidase (EC 3.2.1.23 from E. coli) (Escherichia coli, UniProt P00722)", "sequence (P00722 2-1024)": "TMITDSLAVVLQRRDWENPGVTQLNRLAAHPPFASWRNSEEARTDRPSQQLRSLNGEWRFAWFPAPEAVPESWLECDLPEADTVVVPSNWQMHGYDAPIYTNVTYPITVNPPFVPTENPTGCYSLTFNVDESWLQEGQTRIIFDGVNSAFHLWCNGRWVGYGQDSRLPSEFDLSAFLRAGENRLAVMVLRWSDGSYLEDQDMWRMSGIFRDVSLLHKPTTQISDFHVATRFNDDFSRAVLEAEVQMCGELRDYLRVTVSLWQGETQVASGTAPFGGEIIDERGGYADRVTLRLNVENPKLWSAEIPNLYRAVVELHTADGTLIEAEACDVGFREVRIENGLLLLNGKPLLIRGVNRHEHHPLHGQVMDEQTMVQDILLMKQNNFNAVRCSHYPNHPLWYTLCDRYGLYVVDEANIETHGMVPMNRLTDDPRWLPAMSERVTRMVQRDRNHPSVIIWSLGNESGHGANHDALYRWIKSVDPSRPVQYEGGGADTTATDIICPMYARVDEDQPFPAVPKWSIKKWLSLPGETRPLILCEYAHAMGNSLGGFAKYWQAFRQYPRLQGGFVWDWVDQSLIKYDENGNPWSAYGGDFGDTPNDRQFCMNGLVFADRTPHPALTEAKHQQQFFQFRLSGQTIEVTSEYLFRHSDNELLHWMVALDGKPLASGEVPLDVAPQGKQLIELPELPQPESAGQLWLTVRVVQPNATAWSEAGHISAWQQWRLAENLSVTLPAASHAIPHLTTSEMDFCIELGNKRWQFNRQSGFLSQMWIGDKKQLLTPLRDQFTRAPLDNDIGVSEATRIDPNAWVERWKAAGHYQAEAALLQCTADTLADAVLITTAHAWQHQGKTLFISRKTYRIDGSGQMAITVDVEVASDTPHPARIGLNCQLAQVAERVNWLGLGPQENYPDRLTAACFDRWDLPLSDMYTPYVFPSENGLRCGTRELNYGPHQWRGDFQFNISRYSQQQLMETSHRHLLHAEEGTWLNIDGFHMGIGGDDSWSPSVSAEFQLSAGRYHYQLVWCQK", "assay": "Inhibition of β-galactosidase hydrolysis of p-nitrophenyl β-galactoside", "assay_type": "biochemical", "conditions": "p-nitrophenyl β-galactoside hydrolysed at the same rate with and without azasugar; concentration not given", "description": "Not all of the monosaccharide acceptors of the present invention are suitable substrates for β-galactosidase. For example, when Compound 3 or 4 from Table 2 are used as a substrate, no product was obtained."}, "[3]": {"biological_target": "β-Glucosidase (Sweet Almond)", "assay": "Glycosidase inhibition, β-glucosidase (SA)", "assay_type": "biochemical", "conditions": "p-nitrophenyl β-D-glucoside, PIPES-NaOAc buffer pH 6.5", "description": "(§1) Materials: All of the buffers, enzymes, and substrates were purchased from Sigma and used as received. These included piperazine-N,N'-bis (2-ethanesulfonic acid) (PIPES), sodium acetate (NaOAc), ethylenediaminetetraacetic acid (EDTA), β-D-glucosidase (from sweet almond), p-nitrophenyl β-D-glucoside, p-nitrophenyl α-D-glucosidase, p-nitrophenyl α-D-glucoside, β-N-acetyl-D-glucosaminedase, p-nitrophenyl β-N-acetyl-D-glucosaminide, α-D-mannosidase and p-nitrophenyl α-D-mannoside.\n(§2) (b) PIPES-NaOAc buffer (0.01 M PIPES, 0.2 M NaOAc and 0.01 mM EDTA, pH 6.5). This buffer was prepared according to the literature procedure [Dale et al., Biochemistry, 24:3530 (1985)].\n(c) β-D-Glucosidase: The stock enzyme solution was prepared by dissolving 15 mg of solid protein (4 units/mg) in 1 mL PIPES-NaOAc buffer solution. This stock enzyme solution was diluted 5-fold for the enzymatic assay.\n(§3) (g) Substrate solutions: all substrates were dissolved in the corresponding buffer solution for enzymatic assay.\n(§4) For each inhibitor, five inhibitor concentrations, ranging from zero to three times Ki, were generally used to determine the Ki value. […] The amount of enzyme added in each assay was adjusted so that less than 10 percent of the substrate, with its lowest substrate concentration, would be consumed within 45 seconds. Since all of the substrates have p-nitrophenol as leaving group, the assays were monitored at 400 nanometers (nm), where the molecular extinction coefficient, ε, was calibrated to be 3204.5 M^-1 cm^-1 at pH 6.5. The following illustrates the detailed procedure.\n(§5) To a 1 mL disposable cuvette were added 950 microliters (μL) of the NaOAc-PIPES buffer solution, 20 μL of the inhibitor solution and 20 μL of the p-nitrophenyl β-D-glucoside solution (100 mM in PIPES-NaOAc buffer, pH 6.5). The solution was well mixed and 20 μL of the β-D-glucosidase solution were injected into the cuvette to start the reaction. The reaction was monitored at 400 nm on a Beckman DU-70 photospectrometer for 45 seconds and the initial hydrolysis rate was calculated. […]"}, "[4]": {"biological_target": "α-Glucosidase (Brewer's Yeast)", "assay": "Glycosidase inhibition, α-glucosidase (BY)", "assay_type": "biochemical", "conditions": "p-nitrophenyl α-D-glucoside, PIPES-NaOAc buffer pH 6.5", "description": "as §1, §2\n(d) α-D-Glucosidase: 1.5 mg of solid protein (70 units/mg) were dissolved in 1 mL PIPES-NaOAc buffer solution and used for assays without further dilution.\nas §3, §4\nas §5, with “calculated. The same procedure was repeated with five other substrate concentrations.” for “calculated.”"}, "[5]": {"biological_target": "E. coli CMP-sialic acid synthetase (CMP-NeuAc synthetase, EC 2.7.7.43), native enzyme (Escherichia coli O18:K1:H7, UniProt P13266)", "sequence (P13266 whole entry)": "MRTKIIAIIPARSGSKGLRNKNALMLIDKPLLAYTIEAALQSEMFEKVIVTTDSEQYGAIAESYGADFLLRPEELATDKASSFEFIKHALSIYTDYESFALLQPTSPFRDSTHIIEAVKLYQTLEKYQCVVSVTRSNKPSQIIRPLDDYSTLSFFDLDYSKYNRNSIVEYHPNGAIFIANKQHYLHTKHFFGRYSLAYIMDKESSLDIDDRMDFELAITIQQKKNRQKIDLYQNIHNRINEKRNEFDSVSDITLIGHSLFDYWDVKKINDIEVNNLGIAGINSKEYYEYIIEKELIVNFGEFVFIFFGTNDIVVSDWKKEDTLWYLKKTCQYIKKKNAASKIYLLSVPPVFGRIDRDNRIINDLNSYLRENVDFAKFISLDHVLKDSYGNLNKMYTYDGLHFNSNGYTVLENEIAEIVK", "assay": "Kinetic studies of native CMP-NeuAc synthetase", "conditions": "pH 9.0, 37° C.", "experimental": "(§10) The activity of the native or the modified CMP-NeuAc synthetase was assayed using a thiobarbituric acid method described by Vann et al., J. Biol. Chem., 262:17556 (1987). […] After the mixture was incubated at 37° C. for 30 minutes, 50 mL of 1.6 M NaBH4 was added to destroy excess NeuAc, and the mixture was heated at room temperature for an additional 15 minutes. The mixture was then put in the ice bath and 50 mL of H3 PO4 were added to destroy NaBH4.\n(§11) The resulting mixture was kept at zero degrees C for five minutes then incubated at 37° C. for 10 minutes to cleave the phosphoester bond of the formed CMP-NeuAc. The free NeuAc was oxidized with 50 mL of 0.2 M NaIO4 at room temperature for 10 minutes, and 400 mL of 4 percent NaAsO2 in 0.5 N HCl were added. […] After the solution was cooled, 1 mL of the solution was taken out and mixed with 1 mL of cyclohexanone. That mixture was shaken and centrifuged, and the upper layer was taken for measurement at 549 nm (e=4.11 mM^-1 cm^-1).\n(§12) where A is [CTP], B is [NeuAc], Ka and Kb are the Michaelis constants for CTP and NeuAc, respectively, and Kia is the dissociation constant (or inhibition constant) for CTP."}, "[6]": {"test_system": "Nc1ccn([C@@H]2O[C@H](COP(=O)(O)OP(=O)(O)OP(=O)(O)O)[C@@H](O)[C@H]2O)c(=O)n1", "assay": "Kinetic studies of modified (tagged) CMP-NeuAc synthetase", "assay_type": "biochemical, E. coli", "conditions": "other: pH 9.0, 37° C.", "procedure": "(§6) The construction of plasmid CMPSIL-1, which contains the modified CMP-NeuAc synthetase gene (Example 2), was accomplished by the method of Ichikawa et al., J. Am. Chem. Soc., 113:4698 (1991). The CMP-NeuAc synthetase gene was fused with the decapeptide tag sequence Tyr-Pre-[…](SEQ ID NO:3) at the C-terminus, cloned into a lambda ZAP™ vector at EcoRI and XbaI sites and overexpressed in E. coli Sure strain.\n(§7) The activity of the native or the modified CMP-NeuAc synthetase was assayed using a thiobarbituric acid method described by Vann et al., J. Biol. Chem., 262:17556 (1987). Briefly, the enzyme was added to a […] buffer containing 5.5 mM CTP, 2.8 mM N-acetylneuraminic acid, 0.2 M Tris, 20 mM MgCl2 and 0.2 mM DTT, pH 9.0, to form a mixture. After the mixture was incubated at 37° C. for 30 minutes, 50 mL of 1.6 M NaBH4 was added to destroy excess NeuAc, and the mixture was heated at room temperature for an additional 15 minutes. The mixture was then put in the ice bath and 50 mL of H3 PO4 were added to destroy NaBH4.\n(§8) The resulting mixture was kept at zero degrees C for five minutes then incubated at 37° C. for 10 minutes to cleave the phosphoester bond of the formed CMP-NeuAc. The free NeuAc was oxidized with 50 mL of 0.2 M NaIO4 at room temperature for 10 minutes, and 400 mL of 4 percent NaAsO2 in 0.5 N HCl were added. The solution mixture was the transferred to a test tube containing 1 mL of 0.6 percent thiobarbituric acid in 0.5 M Na2 SO4, and heated in boiled water for 15 minutes. After the solution was cooled, 1 mL of the solution was taken out and mixed with 1 mL of cyclohexanone. That mixture was shaken and centrifuged, and the upper layer was taken for measurement at 549 nm (e=4.11 mM^-1 cm^-1).\n(§9) Initial velocities were measured at various concentrations of CTP (1.25-5 mM) and NeuAc (2-8 mM) for kinetic studies. The data were fitted into the sequential bi-bi substrate rate equation 3, shown below, to derive the Michaelis constants and maximum velocity (V) using a Sigma plot program from Sigma Co. [formula] […]"}, "[7]": {"test_system": "CC(=O)N[C@H]1[C@H]([C@H](O)[C@H](O)CO)OC(O)(C(=O)O)C[C@@H]1O", "assay": "Kinetic studies of modified (tagged) CMP-NeuAc synthetase", "assay_type": "biochemical, E. coli", "conditions": "other: pH 9.0, 37° C.", "procedure": "as §6, §7, §8, §9"}, "[8]": {"test_system": "Nc1ccn([C@@H]2O[C@H](COP(=O)(O)OP(=O)(O)OP(=O)(O)O)[C@@H](O)[C@H]2O)c(=O)n1", "assay": "purified protein, by the assay type", "conditions": "other: pH 9.0, 37° C.", "experimental": "as §10, §11, §12"}}, "data": [{"compound": "C=CCO[C@@H]1O[C@H](CO)[C@@H](O[C@@H]2O[C@H](CO)[C@H](O)[C@H](O)[C@H]2O)C[C@H]1NC(C)=O", "note": "[Compound 2i, Allyl β-D-galactopyranosyl-(1,4)-2-acetamido-2,3-dideoxy-β-D-glucopyranoside]", "values": [{"measurement": "inhibitory effect", "setting": "[1]", "value": "did not exhibit any inhibitory effect"}]}, {"compound": "OC[C@H]1NC[C@H](O)[C@@H](O)[C@@H]1O", "note": "[Compound 3]", "values": [{"measurement": "inhibition of β-galactosidase", "setting": "[2]", "value": "Neither azasugar was an inhibitor"}]}, {"compound": "C[C@H]1NC[C@H](O)[C@@H](O)[C@@H]1O", "note": "[Compound 4]", "values": [{"measurement": "inhibition of β-galactosidase", "setting": "[2]", "value": "Neither azasugar was an inhibitor"}]}, {"compound": "OC[C@H]1O[C@@H](O[C@H]2[C@H](O)C=CO[C@@H]2CO)[C@H](O)[C@@H](O)[C@H]1O", "note": "[Compound 8, P-D-Galactopyranosyl-(1,4)-D-glucal]", "values": [{"measurement": "inhibitory effect", "setting": "[1]", "value": "did not exhibit any inhibitory effect"}]}, {"compound": "OC[C@H]1NC[C@H](O)[C@@H](O)[C@@H]1O[C@@H]1O[C@H](CO)[C@H](O)[C@H](O)[C@H]1O", "note": "[Compound 10a, 6-D-Galactopyranosyl-(1,4) -deoxynojirimycin]", "values": [{"measurement": "IC50", "setting": "[1]; Example 8", "value": "~40000", "unit": "µM"}, {"measurement": "IC50", "setting": "[1]; Table 1a, 14C-GDP-fucose, pH 6.2, 37° C., IC50 extrapolated from linear fit", "value": 40000, "unit": "µM"}]}, {"compound": "C[C@H]1NC[C@H](O)[C@@H](O)[C@@H]1O", "note": "[Compound 103c, (2R)-methyl-(3R,4R,5S)-trihydroxypiperidine]", "values": [{"measurement": "Ki", "setting": "[3]", "value": 780, "unit": "µM"}, {"measurement": "Ki", "setting": "[4]", "value": 1560, "unit": "µM"}]}, {"compound": "C[C@@H]1[C@@H](O)[C@H](O)[C@@H](O)CN1C", "note": "[Compound 117, (1,2R)-dimethyl-(3R,4R,5S)-trihydroxypiperidine]", "values": [{"measurement": "Ki", "setting": "[3]", "value": 140, "unit": "µM"}, {"measurement": "Ki", "setting": "[4]", "value": 1780, "unit": "µM"}]}, {"compound": "C[C@@H]1[C@@H](O)[C@H](O)[C@@H](O)C[N@+]1(C)[O-]", "note": "[Compound 118, (1,2R)-dimethyl-(3R,4R,5S)-trihydroxypiperidine oxide]", "values": [{"measurement": "Ki", "setting": "[3]", "value": 1490, "unit": "µM"}, {"measurement": "Ki", "setting": "[4]", "value": 6950, "unit": "µM"}]}, {"compound": "CC(=O)N[C@H]1[C@H]([C@H](O)[C@H](O)CO)OC(O)(C(=O)O)C[C@@H]1O", "note": "(stereo partly drawn) [NeuAc, N-acetylneuraminic acid]", "values": [{"measurement": "Km", "setting": "[5]; read-out: Km for NeuAc", "value": 4, "unit": "mM"}, {"measurement": "kcat", "setting": "[5]; substrates NeuAc and CTP", "value": 1.8, "unit": "s⁻¹"}]}, {"compound": "E. coli CMP-sialic acid synthetase (CMP-NeuAc synthetase, EC 2.7.7.43), modified (tagged) enzyme with C-terminal decapeptide tag, SEQ ID NO:3 (Escherichia coli RS218)", "values": [{"measurement": "Km", "setting": "[6]", "value": 1.99, "unit": "mM"}, {"measurement": "Km", "setting": "[7]", "value": 4.8, "unit": "mM"}, {"measurement": "kcat", "setting": "[7]", "value": 1.9, "unit": "s⁻¹"}]}, {"compound": "E. coli CMP-sialic acid synthetase (CMP-NeuAc synthetase, EC 2.7.7.43), native enzyme (Escherichia coli RS218)", "values": [{"measurement": "Km", "setting": "[8]", "value": 0.31, "unit": "mM"}]}]}
